Experimental findings from US12669496B2, “Method for evaluating and/or screening a control agent for tissue morphology and/or tissue function” (ROHTO PHARMACEUTICAL CO., LTD., priority 2020, dated 2026) are described below.

For assay [1], the system named is MRTFA. The experiment in a line: Real-time PCR of MRTFA gene expression in skin equivalent models. Format: cell-based, human. The conditions noted are these: 10 μM, 6 to 48 hours; tensional homeostatic skin equivalent model (confirmed only in this model). (In general: Real-time PCR tracks product formation cycle by cycle.)
Assay [2] relates to COL1A1. Briefly: Real-time PCR of COL1A1 gene expression in skin equivalent models. Format: cell-based, human. The conditions noted are these: 6 to 48 hours.
In assay [3] the test system is type I collagen. The experiment in a line: Immunohistochemical staining of type I collagen in skin equivalent. Format: cell-based, human.
In assay [4] the test system is HAS3. The experiment in a line: Real-time PCR of HAS3 gene expression in skin equivalent models. The conditions noted are these: 10 μM.
The subject of assay [5] is ITGA2. The experiment in a line: Immunohistochemical staining of ITGA2 in skin equivalent models. Type of assay: cell-based, human. The conditions noted are these: 10 nM, 6 to 48 hours; tensional homeostatic model; to levels approximately equivalent to tension-released model.
Assay [6] concerns MRTFA. The experiment in a line: Immunohistochemical staining of MRTFA in skin equivalent models. The conditions noted are these: 10 nM, 6 to 48 hours; tensional homeostatic model; to levels approximately equivalent to tension-released model. Type of assay: cell-based, human.
For assay [7], the system named is αSMA. Briefly: Immunohistochemical staining of αSMA in skin equivalent models. Format: cell-based, human. The following applies: 10 nM, 6 to 48 hours; tensional homeostatic model; to levels approximately equivalent to tension-released model.
Assay [8] has as its system MRTFA. The experiment in a line: Image analysis of nuclear import rates of MRTFA. The conditions noted are these: 10 nM, 6 to 48 hours; image analysis of immunohistochemical staining. Type of assay: cell-based, human.
Assay [9] deals with COL1A2. Briefly: Real-time PCR of COL1A2 gene expression in skin equivalent models. The conditions noted are these: 10 nM, 6 to 48 hours; tensional homeostatic model; to the equivalent level in tension-released skin equivalent. Format: cell-based, human.
The test system of assay [10] is FBN1. The experiment in a line: Real-time PCR of FBN1 gene expression in skin equivalent models. Format: cell-based, human. The following applies: 10 nM, 6 to 48 hours; tensional homeostatic model; to the equivalent level in tension-released skin equivalent.
Assay [11] relates to ELN. The experiment in a line: Real-time PCR of ELN gene expression in skin equivalent models. Type of assay: cell-based, human. The following applies: 10 nM, 6 to 48 hours; tensional homeostatic model; to the equivalent level in tension-released skin equivalent.
For assay [12], the system named is MMP1. Briefly: Real-time PCR of MMP1 gene expression in skin equivalent models. The following applies: 10 nM, 6 to 48 hours; tensional homeostatic model; to the equivalent level in tension-released skin equivalent. Format: cell-based, human.
Assay [13] relates to Tensional homeostatic skin equivalent. Briefly: Fluorescent staining of actin cytoskeleton and cell membrane (tissue orientation). Type of assay: cell-based, human. The following applies: 10 nM, to level approximately equivalent to tension-released model.

The structures appear in SMILES notation.

Turning to `CC1=C(/C=C/C(C)=C/C=C/C(C)=C/C(=O)O)C(C)(C)CCC1` [ATRA, all-trans retinoic acid], in [1], the MRTFA gene expression entry is on record as “significant increase”. The COL1A1 gene expression result in assay [2] (10 μM, Tensional homeostatic skin equivalent vs control group (confirmed only in this model)) is “significant promotion of gene expression”. For the same compound, the “expression of type I collagen (collagen fiber formation)” value in [3] (10 μM, Tensional homeostatic skin model, vs control group) was “increased”. In assay [4] (6 to 48 hours, each skin equivalent model, compared with all the control groups), the HAS3 gene expression entry was “significant promotion of gene expression”. In assay [4] (Tensional homeostatic skin equivalent compared with the other models), the “ratio of the HAS3 expression promotion” value was “highest value”.
As to `C[C@@H](N)[C@H]1CC[C@H](C(=O)Nc2ccncc2)CC1` [Y27632], the “gene expression of COL1A1” value in assay [2] (10 nM, tensional homeostatic model, to the equivalent level in tension-released skin equivalent) was “significantly inhibited”. In assay [3] (10 nM, Tensional homeostatic skin equivalent, to level approximately equivalent to tension-released model), the “expression level of type I collagen (collagen fiber formation)” value is recorded as “reduced”. The “expression level of ITGA2” value in assay [5] is listed as “reduces the expression levels”. Moreover, in assay [6], the “expression level of MRTFA” value is reported as “reduces the expression levels”. In assay [7], the “expression level of αSMA” value is recorded as “reduces the expression levels”. In addition, the “nuclear import rates of MRTFA” value in assay [8] is “significantly reduced”. In addition, the “gene expression of COL1A2” value in assay [9] is “significantly inhibited”. The “gene expression of FBN1” value in [10] was “significantly inhibited”. In addition, in assay [11], the “gene expression of ELN” value is “significantly inhibited”. Also, the “gene expression of MMP1” value in assay [12] is given as “significantly increased”. In addition, in assay [13], the “orientations of the cytoskeletons, cell membranes, and nuclei in the tension direction” value is recorded as “reduced the orientations”.
